Reference: ChEMBL document CHEMBL4828717, “Synthetic cajaninstilbene acid derivatives eradicate methicillin-resistant Staphylococcus aureus persisters and biofilms” (Eur J Med Chem, 2021)

How the values were obtained:
Staphylococcus aureus [1] = assay: Antibacterial activity against Staphylococcus aureus ATCC 25923 assessed as reduction in microbial growth after 16 to 18 hrs by microbroth dilution method; format: functional; details: time 16-18 hrs
Staphylococcus aureus [2] = assay: Antibacterial activity against methicillin resistant Staphylococcus aureus ATCC 43300 assessed as reduction in microbial growth after 16 to 18 hrs by microbroth dilution method; format: functional; details: time 16-18 hrs
Staphylococcus aureus [3] = assay: Antibacterial activity against methicillin resistant Staphylococcus aureus ATCC 62202 assessed as reduction in microbial growth after 16 to 18 hrs by microbroth dilution method; format: functional; details: time 16-18 hrs
Staphylococcus aureus [4] = assay: Antibacterial activity against methicillin resistant Staphylococcus aureus ATCC 52056 assessed as reduction in microbial growth after 16 to 18 hrs by microbroth dilution method; format: functional; details: time 16-18 hrs
Staphylococcus aureus [5] = assay: Antibacterial activity against methicillin resistant Staphylococcus aureus ATCC513045 assessed as reduction in microbial growth after 16 to 18 hrs by microbroth dilution method; format: functional; details: time 16-18 hrs
Staphylococcus aureus [6] = assay: Antibacterial activity against methicillin resistant Staphylococcus aureus ATCC515992 assessed as reduction in microbial growth after 16 to 18 hrs by microbroth dilution method; format: functional; details: time 16-18 hrs
Staphylococcus aureus [7] = assay: Antibacterial activity against methicillin resistant Staphylococcus aureus ATCC49800 assessed as reduction in microbial growth after 16 to 18 hrs by microbroth dilution method; format: functional; details: time 16-18 hrs
Staphylococcus aureus [8] = assay: Antibacterial activity against methicillin resistant Staphylococcus aureus ATCC49025 assessed as reduction in microbial growth after 16 to 18 hrs by microbroth dilution method; format: functional; details: time 16-18 hrs
Staphylococcus aureus [9] = assay: Antibacterial activity against methicillin resistant Staphylococcus aureus ATCC48073 assessed as reduction in microbial growth after 16 to 18 hrs by microbroth dilution method; format: functional; details: time 16-18 hrs
Staphylococcus aureus [10] = assay: Antibacterial activity against methicillin resistant Staphylococcus aureus ATCC48966 assessed as reduction in microbial growth after 16 to 18 hrs by microbroth dilution method; format: functional; details: time 16-18 hrs
Staphylococcus aureus [11] = assay: Antibacterial activity against methicillin resistant Staphylococcus aureus ATCC49008 assessed as reduction in microbial growth after 16 to 18 hrs by microbroth dilution method; format: functional; details: time 16-18 hrs
Staphylococcus aureus [12] = assay: Antibacterial activity against methicillin resistant Staphylococcus aureus ATCC48706 assessed as reduction in microbial growth after 16 to 18 hrs by microbroth dilution method; format: functional; details: time 16-18 hrs
Escherichia coli = assay: Antibacterial activity against Escherichia coli ATCC25922 assessed as reduction in microbial growth after 16 to 18 hrs by microbroth dilution method; format: functional; details: ATCC 25922, time 16-18 hrs
Pseudomonas aeruginosa = assay: Antibacterial activity against Pseudomonas aeruginosa ATCC27853 assessed as reduction in microbial growth after 16 to 18 hrs by microbroth dilution method; format: functional; details: time 16-18 hrs
Enterococcus faecalis = assay: Antibacterial activity against Enterococcus faecalis ATCC29212 assessed as reduction in microbial growth after 16 to 18 hrs by microbroth dilution method; format: functional; details: ATCC 29212, time 16-18 hrs
RAW264.7 = assay: Cytotoxicity against mouse RAW264.7 cells assessed as cell viability at 10 ug/ml measured after 24 hrs by MTT assay; format: cell-based; details: raw264.7, 24 h, dose 10 µg/ml
L02 = assay: Cytotoxicity against human L02 cells assessed as cell viability at 10 ug/ml measured after 24 hrs by MTT assay; format: cell-based; details: l02, 24 h, dose 10 µg/ml

| SMILES | MIC (Staphylococcus aureus [1]) | MIC (Staphylococcus aureus [2]) | MIC (Staphylococcus aureus [3]) | MIC (Staphylococcus aureus [4]) | MIC (Staphylococcus aureus [5]) | MIC (Staphylococcus aureus [6]) | MIC (Staphylococcus aureus [7]) | MIC (Staphylococcus aureus [8]) | MIC (Staphylococcus aureus [9]) | MIC (Staphylococcus aureus [10]) | MIC (Staphylococcus aureus [11]) | MIC (Staphylococcus aureus [12]) | MIC (Escherichia coli) | MIC (Pseudomonas aeruginosa) | MIC (Enterococcus faecalis) | Activity (RAW264.7) | Activity (L02) |
| --- | --- | --- | --- | --- | --- | --- | --- | --- | --- | --- | --- | --- | --- | --- | --- | --- | --- |
| CC(C)=CCc1c(OC2CCCCCC2)cc(/C=C/c2ccc(C(F)(F)F)cc2)c(C(=O)O)c1O | 4 µg/mL | 1 µg/mL | 2 µg/mL | 1 µg/mL | 2 µg/mL | 4 µg/mL | 4 µg/mL | 4 µg/mL | 4 µg/mL | 4 µg/mL | 4 µg/mL | 4 µg/mL | > 32 µg/mL | > 32 µg/mL | > 32 µg/mL | Toxic | Toxic |
| CC(C)=CCc1c(OC2CCCCCC2)cc(/C=C/c2ccc(F)cc2)c(C(=O)O)c1O | 2 µg/mL | 1 µg/mL | 2 µg/mL | 1 µg/mL | 2 µg/mL | 2 µg/mL | 4 µg/mL | 2 µg/mL | 2 µg/mL | 2 µg/mL | 2 µg/mL | 2 µg/mL | > 32 µg/mL | > 32 µg/mL | > 32 µg/mL | Toxic | Toxic |
| CC(C)=CCc1c(OCc2ccccc2)cc(/C=C/c2ccc(C(F)(F)F)cc2)c(C(=O)O)c1O | 4 µg/mL | 2 µg/mL | 2 µg/mL | 2 µg/mL | 2 µg/mL | 2 µg/mL | 4 µg/mL | 4 µg/mL | 4 µg/mL | 4 µg/mL | 4 µg/mL | 4 µg/mL | > 32 µg/mL | > 32 µg/mL | > 32 µg/mL | Toxic | Toxic |
| CC(C)=CCc1c(OCCC(F)(F)F)cc(/C=C/c2ccc(F)cc2)c(C(=O)O)c1O | 4 µg/mL | 4 µg/mL | 4 µg/mL | 4 µg/mL | 2 µg/mL | 4 µg/mL | 4 µg/mL | 4 µg/mL | 4 µg/mL | 4 µg/mL | 4 µg/mL | 4 µg/mL | > 32 µg/mL | > 32 µg/mL | > 32 µg/mL | Toxic | Toxic |
| CCCC(CC)Oc1cc(/C=C/c2ccc(C(F)(F)F)cc2)c(C(=O)O)c(O)c1CC=C(C)C (configuration not stated) | 4 µg/mL | 2 µg/mL | 2 µg/mL | 2 µg/mL | 2 µg/mL | 4 µg/mL | 4 µg/mL | 8 µg/mL | 4 µg/mL | 8 µg/mL | 8 µg/mL | 4 µg/mL | > 32 µg/mL | > 32 µg/mL | > 32 µg/mL | Toxic | Toxic |
| CC(C)=CCc1c(OC2CCC2)cc(/C=C/c2ccc(C(F)(F)F)cc2)c(C(=O)O)c1O | 2 µg/mL | 1 µg/mL | 1 µg/mL | 1 µg/mL | 1 µg/mL | 2 µg/mL | 2 µg/mL | 1 µg/mL | 2 µg/mL | 1 µg/mL | 1 µg/mL | 1 µg/mL | > 32 µg/mL | > 32 µg/mL | > 32 µg/mL | Toxic | Toxic |
| CC(C)=CCc1c(OCC2CC2)cc(/C=C/c2ccc(C(F)(F)F)cc2)c(C(=O)O)c1O | 1 µg/mL | 2 µg/mL | 2 µg/mL | 1 µg/mL | 2 µg/mL | 2 µg/mL | 2 µg/mL | 2 µg/mL | 2 µg/mL | 2 µg/mL | 2 µg/mL | 2 µg/mL | > 32 µg/mL | > 32 µg/mL | > 32 µg/mL | Toxic | Toxic |
| CC(C)=CCc1c(OCCCF)cc(/C=C/c2ccc(C(F)(F)F)cc2)c(C(=O)O)c1O | 2 µg/mL | 2 µg/mL | 4 µg/mL | 2 µg/mL | 2 µg/mL | 4 µg/mL | 4 µg/mL | 4 µg/mL | 4 µg/mL | 4 µg/mL | 4 µg/mL | 4 µg/mL | > 32 µg/mL | > 32 µg/mL | > 32 µg/mL | Toxic | Toxic |
| CC(C)=CCc1c(OCC(F)F)cc(/C=C/c2ccc(C(F)(F)F)cc2)c(C(=O)O)c1O | 2 µg/mL | 2 µg/mL | 2 µg/mL | 2 µg/mL | 2 µg/mL | 2 µg/mL | 2 µg/mL | 2 µg/mL | 2 µg/mL | 2 µg/mL | 2 µg/mL | 2 µg/mL | > 32 µg/mL | > 32 µg/mL | > 32 µg/mL | Toxic | Toxic |
| CC(C)=CCc1c(OC(C)C)cc(/C=C/c2ccc(F)cc2)c(C(=O)O)c1O | 4 µg/mL | 4 µg/mL | 4 µg/mL | 2 µg/mL | 8 µg/mL | 2 µg/mL | 4 µg/mL | 4 µg/mL | 4 µg/mL | 4 µg/mL | 4 µg/mL | 4 µg/mL | > 32 µg/mL | > 32 µg/mL | > 32 µg/mL | Toxic | Toxic |
| CC(C)=CCc1c(OCC(F)(F)F)cc(/C=C/c2ccc(C(F)(F)F)cc2)c(C(=O)O)c1O | 2 µg/mL | 2 µg/mL | 2 µg/mL | 2 µg/mL | 2 µg/mL | 2 µg/mL | 2 µg/mL | 2 µg/mL | 2 µg/mL | 2 µg/mL | 2 µg/mL | 2 µg/mL | > 32 µg/mL | > 32 µg/mL | > 32 µg/mL | Toxic | Toxic |
| CC(C)=CCc1c(OCCCCF)cc(/C=C/c2ccc(C(F)(F)F)cc2)c(C(=O)O)c1O | 4 µg/mL | 2 µg/mL | 4 µg/mL | 2 µg/mL | 4 µg/mL | 2 µg/mL | 4 µg/mL | 4 µg/mL | 4 µg/mL | 4 µg/mL | 4 µg/mL | 4 µg/mL | > 32 µg/mL | > 32 µg/mL | > 32 µg/mL | Toxic | Toxic |
| CC(C)=CCc1c(OC2CCCC2)cc(/C=C/c2ccc(F)cc2)c(C(=O)O)c1O | 2 µg/mL | 2 µg/mL | 2 µg/mL | 2 µg/mL | 2 µg/mL | 2 µg/mL | 4 µg/mL | 4 µg/mL | 4 µg/mL | 4 µg/mL | 4 µg/mL | 4 µg/mL | > 32 µg/mL | > 32 µg/mL | > 32 µg/mL | Toxic | Toxic |
| CC(C)=CCc1c(OCC(F)F)cc(/C=C/c2ccc(F)cc2)c(C(=O)O)c1O | 4 µg/mL | 4 µg/mL | 4 µg/mL | 2 µg/mL | 4 µg/mL | 4 µg/mL | 4 µg/mL | 4 µg/mL | 4 µg/mL | 4 µg/mL | 4 µg/mL | 4 µg/mL | > 32 µg/mL | > 32 µg/mL | > 32 µg/mL | Toxic | Toxic |
| CC(C)=CCc1c(OCCC(F)(F)F)cc(/C=C/c2ccc(C(F)(F)F)cc2)c(C(=O)O)c1O | 2 µg/mL | 2 µg/mL | 2 µg/mL | 2 µg/mL | 2 µg/mL | 2 µg/mL | 4 µg/mL | 4 µg/mL | 4 µg/mL | 4 µg/mL | 4 µg/mL | 4 µg/mL | > 32 µg/mL | > 32 µg/mL | > 32 µg/mL | Toxic | Toxic |
| CCOc1cc(/C=C/c2ccc(F)cc2)c(C(=O)O)c(O)c1CC=C(C)C | 4 µg/mL | 2 µg/mL | 4 µg/mL | 2 µg/mL | 4 µg/mL | 4 µg/mL | 8 µg/mL | 4 µg/mL | 4 µg/mL | 4 µg/mL | 4 µg/mL | 4 µg/mL | > 32 µg/mL | > 32 µg/mL | > 32 µg/mL | Toxic | Toxic |
